In patent publication EP0185346A2, “Imidazo derivatives, their preparation and medicaments containing these compounds” (Dr. Karl Thomae GmbH, priority 1984, dated 1986):

Test system: despinalisierten Meerschweinchen
Experiment: Positive inotropic effect in despinalised guinea pigs (LV-dp/dtmax, i.v. injection)
Type: in vivo
Conditions: Cavia porcellus, iv; 1 mg/kg i.v.; mean values, each substance tested in 3 despinalised guinea pigs; read-out: Zunahme in LV-dp/dtmax
Excerpt: Bestimmung der positiv inotropen Wirkung an despinalisierten Meerschweinchen
Die Untersuchungen wurden an despinalisierten Meerschweinchen durchgeführt. Die Tiere wurden mit 50 % 02 + 50 % N2 beatmet. Der arterielle Blutdruck wurde in der rechten Arteria Carotis mit einem Bell and Howell Druckwandler (4-327-1) gemessen. Für die Erfassung der positiv inotropen Wirkung wurde mit einem Kathetertipmanometer (Millar PR-249) der Druck in dem linken Ventrikel (LV) gemessen. Mittels eines Differenzierers wurde LV-dp/dtmax gewonnen. Die zu untersuchenden Substanzen wurden in eine Vena jugularis injiziert. Als Lösungsmittel diente 0,9 % NaCl+Polydiol 200 (1:1).
Jede Substanz wurde an 3 Meerschweinchen überprüft. Die Dosen waren 0,1 - 3 mg/kg i.v.. Die nachfolgende Tabelle enthält die Mittelwerte bei 1 mg/kg i.v..

SMILES | change in vivo at 1 mg/kg
COc1ccc(-c2cn3cc[nH]c(=O)c3n2)cc1 [Substanz B, 2-(4-Methoxy-phenyl)-7H-imidazo[1,2-a]pyrazin-8-on] | 45%
COc1cc(S(=O)(=O)N(C)C)ccc1-c1cn2ccc(=O)[nH]c2n1 [Substanz F, 2-(2-Methoxy-4-dimethylaminosulfonyl-phenyl)-8H-imidazo-[1,2-a]pyrimidin-7-on] | 47%
CN(C)S(=O)(=O)c1ccc(-c2cn3ccc(=O)[nH]c3n2)cc1 [Substanz A] | 32%
COc1cc(OS(C)(=O)=O)ccc1-c1cn2ccc(=O)[nH]c2n1 [Substanz D, 2-(2-Methoxy-4-methylsulfonyloxy-phenyl)-8H-imidazo-[l,2-a]pyrimidin-7-on] | 63%
COc1cc(C(=O)N(C)C)ccc1-c1cn2ccc(=O)[nH]c2n1 [Substanz H, 2-(2-Methoxy-4-dimethylaminocarbonyl-phenyl)-8H-imidazo-[l,2-a]pyrimidin-7-on] | 33%
COc1ccc(-c2cn3c(=O)[nH]c(=O)[nH]c3n2)cc1 [Substanz C, 7-(4-Methoxy-phenyl)-1H,3H-imidazo[1,2-a][1.3.5]triazin-2,4-dion] | 86%
COc1cc(C#N)ccc1-c1cn2ccc(=O)[nH]c2n1 [Substanz E, 2-(2-Methoxy-4-cyano-phenyl)-8H-imidazo[1,2-a]pyrimidin-7-on] | 44%
COc1cc(OS(C)(=O)=O)ccc1-c1cn2cc[nH]c(=O)c2n1 [Substanz I, 2-(2-Methoxy-4-methylsulfonyloxy-phenyl)-7H-imidazo-[1,2-a]pyrazin-8-on] | 98%
CNS(=O)(=O)c1ccc(-c2cn3ccc(=O)[nH]c3n2)c(OC)c1 [Substanz G, 2-(2-Methoxy-4-methylaminosulfonyl-phenyl)-8H-imidazo-[1,2-a]pyrimidin-7-on] | 75%
